Test results: patent US10206907B2, “Compounds useful for the treatment of degenerative and inflammatory diseases” (GALAPAGOS NV, priority 2008, dated 2019)

target: Recombinant human JAK1 catalytic domain (Homo sapiens (Human), UniProt P23458); assay: JAK1 inhibition assay; type: biochemical; conditions: semi-quantitative score
Experimental: Plates were washed 6 times with 300 μL per well of a 75 mM phosphoric acid solution and the bottom of the plates was sealed. 40 μL/well of Microscint-20 was added, the top of the plates was sealed and readout was performed using the Topcount (Perkin Elmer). Kinase activity was calculated by subtracting counts per minute (cpm) obtained in the presence of a positive control inhibitor (10 μM staurosporine) from cpm obtained in the presence of vehicle. The ability of a test compound to inhibit this activity was determined as: Percentage inhibition=((cpm determined for sample with test compound present−cpm determined for sample with positive control inhibitor) divided by (cpm determined in the presence of vehicle−cpm determined for sample with positive control inhibitor))*100%.
Dose dilution series were prepared for the compounds enabling the testing of dose-response effects in the JAK1 assay and the calculation of the IC50 for each compound.

Recombinant human JAK1 catalytic domain, sequence (P23458 850-1154): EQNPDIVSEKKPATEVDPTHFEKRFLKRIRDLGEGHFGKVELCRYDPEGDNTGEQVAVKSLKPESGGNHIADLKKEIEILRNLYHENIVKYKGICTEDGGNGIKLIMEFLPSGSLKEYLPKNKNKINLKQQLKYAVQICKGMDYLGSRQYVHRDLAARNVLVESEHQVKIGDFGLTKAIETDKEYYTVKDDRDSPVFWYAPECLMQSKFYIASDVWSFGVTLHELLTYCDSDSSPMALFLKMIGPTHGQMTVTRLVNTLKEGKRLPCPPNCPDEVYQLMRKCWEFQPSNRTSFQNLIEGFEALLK

Row | IC50 [nM] | Structure (SMILES)
1 | 501 to 1000 | O=C(Nc1nc2cccc(-c3ccc(C(=O)N4CCC(c5nc6ccccc6[nH]5)CC4)cc3)n2n1)C1CC1 [Compound 128, N-(5-(4-(4-(1H-benzo[d]imidazol-2-yl)piperidine-1-carbonyl)phenyl)-[1,2,4]triazolo[1,5-a]pyridin-2-yl)cyclopropanecarboxamide]
2 | 101 to 500 | COc1ccccc1C1CCN(C(=O)c2ccc(-c3cccc4nc(NC(=O)C5CC5)nn34)cc2)CC1 [Compound 131, N-(5-(4-(4-(2-methoxyphenyl)piperidine-1-carbonyl)phenyl)-[1,2,4]triazolo[1,5-a]pyridin-2-yl)cyclopropanecarboxamide]
3 | 101 to 500 | O=C(Nc1nc2cccc(-c3ccc(C(=O)N4CCC(O)(c5ccc(Cl)cc5)CC4)cc3)n2n1)C1CC1 [Compound 132]
4 | 101 to 500 | Cc1ccccc1OCC1CCN(C(=O)c2ccc(-c3cccc4nc(NC(=O)C5CC5)nn34)cc2)CC1 [Compound 133]
5 | 101 to 500 | CC(C)N(Cc1ccc(N2CCCCC2)cc1)C(=O)c1ccc(-c2cccc3nc(NC(=O)C4CC4)nn23)cc1 [Compound 135, 4-(2-(cyclopropanecarboxamido)-[1,2,4]triazolo[1,5-a]pyridin-5-yl)-N-isopropyl-N-(4-(piperidin-1-yl)benzyl)benzamide]
6 | 101 to 500 | CCCN(CC1CCCO1)C(=O)c1ccc(-c2cccc3nc(NC(=O)C4CC4)nn23)cc1 (centres unmarked) [Compound 136, 4-(2-(cyclopropanecarboxamido)-[1,2,4]triazolo[1,5-a]pyridin-5-yl)-N-propyl-N-((tetrahydrofuran-2-yl)methyl)benzamide]
7 | 101 to 500 | NC(=O)C1CCN(Cc2ccc(-c3cccc4nc(NC(=O)C5CC5)nn34)cc2)CC1 [Compound 140]
8 | 101 to 500 | CC(=O)N1CCN(Cc2ccc(-c3cccc4nc(NC(=O)C5CC5)nn34)cc2)CC1 [Compound 141, N-(5-(4-((4-acetoylpiperazin-1-yl)methyl)phenyl)-[1,2,4]triazolo[1,5-a]pyridin-2-yl)cyclopropanecarboxamide]
9 | 101 to 500 | O=C(Nc1nc2cccc(-c3ccc(CN4CCN(c5ccccn5)CC4)cc3)n2n1)C1CC1 [Compound 142, N-(5-(4-((4-(pyridin-2-yl)piperazin-1-yl)methyl)phenyl)-[1,2,4]triazolo[1,5-a]pyridin-2-yl)cyclopropanecarboxamide]
10 | 101 to 500 | O=C(Nc1nc2cccc(-c3ccc(C(=O)N4CCC(CCc5ccccc5)CC4)cc3)n2n1)C1CC1 [Compound 147]
11 | 101 to 500 | O=C(Nc1nc2cccc(-c3ccc(C(=O)N4CCC(c5noc6cc(F)ccc56)CC4)cc3)n2n1)C1CC1 [Compound 149, N-(5-(4-(4-(6-fluorobenzo[d]isoxazol-3-yl)piperidine-1-carbonyl)phenyl)-[1,2,4]triazolo[1,5-a]pyridin-2-yl)cyclopropanecarboxamide]
12 | 101 to 500 | COCC(C)N(Cc1ccc(F)cc1)C(=O)c1ccc(-c2cccc3nc(NC(=O)C4CC4)nn23)cc1 (centres unmarked) [Compound 151, 4-(2-(cyclopropanecarboxamido)-[1,2,4]triazolo[1,5-a]pyridin-5-yl)-N-(4-fluorobenzyl)-N-(1-methoxypropan-2-yl)benzamide]
13 | 101 to 500 | O=C(Nc1nc2cccc(-c3ccc(C(=O)N4CCC(n5nnc6ccccc65)CC4)cc3)n2n1)C1CC1 [Compound 152, N-(5-(4-(4-(1H-benzo[d][1,2,3]triazol-1-yl)piperidine-1-carbonyl)phenyl)-[1,2,4]triazolo[1,5-a]pyridin-2-yl)cyclopropanecarboxamide]
14 | 101 to 500 | O=C(Nc1nc2cccc(-c3ccc(C(=O)N(Cc4ccc(F)cc4)CC4CCCO4)cc3)n2n1)C1CC1 (centres unmarked) [Compound 153, 4-(2-(cyclopropanecarboxamido)-[1,2,4]triazolo[1,5-a]pyridin-5-yl)-N-(4-fluorobenzyl)-N-((tetrahydrofuran-2-yl)methyl)benzamide]
15 | 101 to 500 | Cc1nccn1CCC1CCN(C(=N)c2ccc(-c3cccc4nc(NC(=O)C5CC5)nn34)cc2)CC1 [Compound 154, N-(5-(4-(imino(4-(2-(2-methyl-1H-imidazol-1-yl)ethyl)piperidin-1-yl)methyl)phenyl)-[1,2,4]triazolo[1,5-a]pyridin-2-yI)cyclopropanecarboxamide]
16 | 101 to 500 | CN1CCN(c2ccc(COc3ccc(-c4cccc5nc(NC(=O)C6CC6)nn45)cc3)cn2)CC1 [Compound 167, N-(5-(4-((6-(4-methylpiperazin-1-yl)pyridin-3-yl)methoxy)phenyl)-[1,2,4]triazolo[1,5-a]pyridin-2-yl)cyclopropanecarboxamide]
17 | 101 to 500 | N#CCN(CCc1ccccc1)C(=O)c1ccc(-c2cccc3nc(NC(=O)C4CC4)nn23)cc1 [Compound 181, N-(cyanomethyl)-4-(2-(cyclopropanecarboxamido)-[1,2,4]triazolo[1,5-a]pyridin-5-yl)-N-phenethylbenzamide]

More lines, now with the values behind:

Row | Structure (SMILES) | IC50 [nM]
18 | O=C(Nc1nc2cccc(-c3ccc(OCCc4cccnc4)cc3)n2n1)C1CC1 [Compound 127, N-(5-(4-(2-(pyridin-3-yl)ethoxy)phenyl)-[1,2,4]triazolo[1,5-a]pyridin-2-yl)cyclopropanecarboxamide] | 101 to 500
19 | O=C(Nc1nc2cccc(-c3ccc(N4CCOCC4)cc3)n2n1)C1CC1 [Compound 129, N-(5-(4-morpholinophenyl)-[1,2,4]triazolo[1,5-a]pyridin-2-yl)cyclopropanecarboxamide] | > 1000
20 | CN1CCN(Cc2ccc(-c3cccc4nc(NC(=O)C5CC5)nn34)cc2)CC1 [Compound 130, N-(5-(4-((4-methylpiperazin-1-yl)methyl)phenyl)-[1,2,4]triazolo[1,5-a]pyridin-2-yl)cyclopropanecarboxamide] | > 1000
21 | O=C(Nc1nc2cccc(-c3ccc(CN4CCCCC4)cc3)n2n1)C1CC1 [Compound 139, N-(5-(4-(pipcridin-1-ylmethyl)phenyl)-[1,2,4]triazolo[1,5-a]pyridin-2-yl)cyclopropanecarboxamide] | 501 to 1000
22 | O=C(Nc1nc2cccc(-c3ccc(CN4CCN(c5ncccn5)CC4)cc3)n2n1)C1CC1 [Compound 143, N-(5-(4-((4-(pyrimidin-2-yl)piperazin-1-yl)methyl)phenyl)-[1,2,4]triazolo[1,5-a]pyridin-2-yl)cyclopropanecarboxamide] | 101 to 500
23 | CN(CCc1ccccn1)Cc1ccc(-c2cccc3nc(NC(=O)C4CC4)nn23)cc1 [Compound 155, N-(5-(4-((methyl(2-(pyridin-2-yl)ethyl)amino)methyl)phenyl)-[1,2,4]triazolo[1,5-a]pyridin-2-yl)cyclopropanecarboxamide] | > 1000
24 | O=C(Nc1nc2cccc(-c3ccc(OCc4nnn[nH]4)cc3)n2n1)C1CC1 [Compound 158] | 101 to 500
25 | CN(Cc1ccc(-c2ccccn2)cc1)Cc1ccc(-c2cccc3nc(NC(=O)C4CC4)nn23)cc1 [Compound 159, N-(5-(4-((methyl(4-(pyridin-2-yl)benzyl)amino)methyl)phenyl)-[1,2,4]triazolo[1,5-a]pyridin-2-yl)cyclopropanecarboxamide] | 101 to 500
26 | Cc1cc(CN(C)Cc2ccc(-c3cccc4nc(NC(=O)C5CC5)nn34)cc2)nn1C [Compound 160, N-(5-(4-((((1,5-dimethyl-1H-pyrazol-3-yl)methyl)(methyl)amino)methyl)phenyl)-[1,2,4]triazolo[1,5-a]pyridin-2-yl)cyclopropanecarboxamide] | 101 to 500
27 | CN(Cc1ccc(-c2cncnc2)cc1)Cc1ccc(-c2cccc3nc(NC(=O)C4CC4)nn23)cc1 [Compound 161, N-(5-(4-((methyl(4-(pyrimidin-5-yl)benzyl)amino)methyl)phenyl)-[1,2,4]triazolo[1,5-a]pyridin-2-yl)cyclopropanecarboxamide] | 501 to 1000
28 | CN(Cc1cccnc1)c1ccc(-c2cccc3nc(NC(=O)C4CC4)nn23)cc1 [Compound 162, N-(5-(4-(methyl(pyridin-3-ylmethyl)amino)phenyl)-[1,2,4]triazolo[1,5-a]pyridin-2-yl)cyclopropanecarboxamide] | > 1000
29 | O=C(Nc1nc2cccc(-c3ccc(OCc4ccc(N5CCOCC5)nc4)cc3)n2n1)C1CC1 [Compound 165] | 101 to 500
30 | O=C(Nc1nc2cccc(-c3ccc(NCc4cccnc4)nc3)n2n1)C1CC1 [Compound 170, N-(5-(6-(pyridin-3-ylmethylamino)pyridin-3-yl)-[1,2,4]triazolo[1,5-a]pyridin-2-yl)cyclopropanecarboxamide] | 501 to 1000
31 | O=C(Nc1nc2cccc(-c3ccc(NCc4ccccn4)nc3)n2n1)C1CC1 [Compound 171, N-(5-(6-(pyridin-2-ylmethylamino)pyridin-3-yl)-[1,2,4]triazolo[1,5-a]pyridin-2-yl)cyclopropanecarboxamide] | 101 to 500
32 | O=C(Nc1nc2cccc(-c3ccc(NCCc4cccnc4)nc3)n2n1)C1CC1 [Compound 172, N-(5-(6-(2-(pyridin-3-yl)ethylamino)pyridin-3-yl)-[1,2,4]triazolo[1,5-a]pyridin-2-yl)cyclopropanecarboxamide] | 501 to 1000
33 | Cc1cc(CNc2ccc(-c3cccc4nc(NC(=O)C5CC5)nn34)cn2)nn1C [Compound 173, N-(5-(6-((1,5-dimethyl-1H-pyrazol-3-yl)methylamino)pyridin-3-yl)-[1,2,4]triazolo[1,5-a]pyridin-2-yl)cyclopropanecarboxamide] | > 1000
34 | O=C(Nc1nc2cccc(-c3ccc(NS(=O)(=O)c4ccccc4)nc3)n2n1)C1CC1 [Compound 180, N-(5-(6-(phenylsulfonamido)pyridin-3-yl)-[1,2,4]triazolo[1,5-a]pyridin-2-yl)cyclopropanecarboxamide] | 101 to 500
35 | O=C(Nc1nc2cccc(-c3ccc(NS(=O)(=O)Cc4ccccc4)nc3)n2n1)C1CC1 [Compound 184, N-(5-(6-(phenylmethylsulfonamido)pyridin-3-yl)-[1,2,4]triazolo[1,5-a]pyridin-2-yl)cyclopropanecarboxamide] | > 1000
